Like-named read-outs stand apart in the source and are kept apart here.
Legend:
SJSA-1 cells = assay: Protocol B: SJSA-1 CellTiter-Glo luminescent cell viability assay
SN40R2 cells = assay: Protocol B: SN40R2 CellTiter-Glo luminescent cell viability assay; details: for IC50: read-out: SN40R2 IC50 (μM) (Protocol B)
[1] = read-out: SN40R2 % inhibition at 10
[2] = read-out: SJSA1 IC50, Protocol B, SJSA-1

Compound `CO[C@]1(c2ccc(Cl)cc2)c2c(F)cc(C(C)(O)c3ncc[nH]3)cc2C(=O)N1Cc1ccc(Cl)cn1` (single isomer, unassigned) [Example 163] has an IC50 (SJSA-1 cells; Homo sapiens, SJSA-1, read-out: SJSA1 IC50 (μM) (Protocol B), SJSA-1, Protocol B) of 3.1 µM and an IC50 (SN40R2 cells) of 13 µM.

For `CO[C@]1(c2ccc(Cl)cc2)c2c(F)cc(C(C)(O)c3nccs3)cc2C(=O)N1Cc1ccc(Cl)cn1` (single isomer, unassigned) [Example 165], the IC50 (SJSA-1 cells; read-out: SJSA1 IC50 (μM) (Protocol B), SJSA-1, Protocol B) was 1.4 µM and the IC50 (SN40R2 cells) was 13 µM.

With `CCC(O)(c1cc(F)c2c(c1)C(=O)N(Cc1ccc(C#N)cn1)[C@@]2(OCCO)c1ccc(Cl)cc1)c1cscn1` (single isomer, unassigned) [Example 333] the IC50 (SJSA-1 cells; Homo sapiens, SJSA-1, read-out: SJSA1 IC50 (μM), Protocol B, SJSA-1) was 0.22 µM and the inhibition at 10 µM (SN40R2 cells; [1]) was 5%.

Work on `CCC(O)(c1cc(F)c2c(c1)C(=O)N(Cc1ccc(C#N)cn1)[C@@]2(OCC1(CO)CC1)c1ccc(Cl)cc1)c1cn(C)cn1` (single isomer, unassigned) [Example 338] yielded an IC50 (SJSA-1 cells; [2]) of 1.5 µM and an inhibition at 10 µM (SN40R2 cells; [1]) of 6%.

`CCC(O)(CN1CCN(C)CC1)c1cc(F)c2c(c1)C(=O)N(Cc1ncc(Cl)cn1)[C@@]2(O[C@H]1CCOC1)c1ccc(Cl)cc1` (single isomer, unassigned) [Example 522] showed an IC50 (SJSA-1 cells; [2]) of 0.048 µM and an inhibition at 10 µM (SN40R2 cells; [1]) of 24%.

With `O=C1c2cc(C(O)C3CCS(=O)(=O)CC3)cc(F)c2[C@](OCC2(O)CC2)(c2ccc(Cl)cc2)N1Cc1ncc(Cl)cn1` (stereo partly drawn) [Example 399, 4-{[(1R)-1-(4-chlorophenyl)-2-[(5-chloropyrimidin-2-yl)methyl]-7-fluoro-1-[(1-hydroxycyclopropyl)methoxy]-3-oxo-2,3-dihydro-1H-isoindol-5-yl](hydroxy)methyl}-1λ6-thiane-1,1-dione] the inhibition at 10 µM (SN40R2 cells; [1]) was 2%.

Compound `CCC(O)(c1cc(F)c2c(c1)C(=O)N(Cc1ccc(C#N)cn1)[C@@]2(O[C@@H]1CCOC1)c1ccc(Cl)cc1)c1cn(C)cn1` (stereo partly drawn) [Example 426, 6-{[(1R)-1-(4-chlorophenyl)-7-fluoro-5-[1-hydroxy-1-(1-methyl-1H-imidazol-4-yl)propyl]-3-oxo-1-[(3R)-oxolan-3-yloxy]-2,3-dihydro-1H-isoindol-2-yl]methyl}pyridine-3-carbonitrile] has an inhibition at 10 µM (SN40R2 cells; [1]) of 4%.

`Cn1cnc(C(O)(c2cc(F)c3c(c2)C(=O)N(Cc2ccc(C#N)cn2)[C@@]3(O[C@H]2CCOC2)c2ccc(Cl)cc2)C2CC2)c1` (stereo partly drawn) [Example 433, 6-{[(1R)-1-(4-chlorophenyl)-5-[cyclopropyl(hydroxy)(1-methyl-1H-imidazol-4-yl)methyl]-7-fluoro-3-oxo-1-[(3S)-oxolan-3-yloxy]-2,3-dihydro-1H-isoindol-2-yl]methyl}pyridine-3-carbonitrile] showed an inhibition at 30 µM (SN40R2 cells; read-out: SN40R2 % inhibition at 30) of 20%.

For `Cn1cnc(C(O)(c2cc(F)c3c(c2)C(=O)N(Cc2ccc(C#N)cn2)[C@@]3(O[C@H]2CCOC2)c2ccc(Cl)cc2)C2CC2)c1` (stereo partly drawn) [Example 434, 6-{[(1R)-1-(4-chlorophenyl)-5-[cyclopropyl(hydroxy)(1-methyl-1H-imidazol-4-yl)methyl]-7-fluoro-3-oxo-1-[(3S)-oxolan-3-yloxy]-2,3-dihydro-1H-isoindol-2-yl]methyl}pyridine-3-carbonitrile], the inhibition at 10 µM (SN40R2 cells; [1]) was 7%.

With `CCC(O)(c1cc(F)c2c(c1)C(=O)N(Cc1ccc(C#N)cn1)[C@@]2(O[C@H]1CCOC1)c1ccc(Cl)cc1)C1(F)CCOCC1` (stereo partly drawn) [Example 445, 6-{[(1R)-1-(4-chlorophenyl)-7-fluoro-5-[1-(4-fluorooxan-4-yl)-1-hydroxypropyl]-3-oxo-1-[(3S)-oxolan-3-yloxy]-2,3-dihydro-1H-isoindol-2-yl]methyl}pyridine-3-carbonitrile] the inhibition at 10 µM (SN40R2 cells; [1]) was 16%.

Compound `CCC(O)(c1cc(F)c2c(c1)C(=O)N(Cc1ncc(Cl)cn1)[C@@]2(OC)c1ccc(Cl)cc1)C1CCNCC1` (stereo partly drawn) [Example 450, (3R)-3-(4-chlorophenyl)-2-[(5-chloropyrimidin-2-yl)methyl]-4-fluoro-6-[1-hydroxy-1-(piperidin-4-yl)propyl]-3-methoxy-2,3-dihydro-1H-isoindol-1-one] has an inhibition at 10 µM (SN40R2 cells; [1]) of 15%.

`CCC(O)(c1cc(F)c2c(c1)C(=O)N(Cc1ncc(C#N)cn1)[C@@]2(OC1CCC(O)C1)c1ccc(Cl)cc1)c1cn(C)cn1` (stereo partly drawn) [Example 461, 2-{[(1R)-1-(4-chlorophenyl)-7-fluoro-5-[1-hydroxy-1-(1-methyl-1H-imidazol-4-yl)propyl]-1-[(trans-3-hydroxycyclopentyl)oxy]-3-oxo-2,3-dihydro-1H-isoindol-2-yl]methyl}pyrimidine-5-carbonitrile] showed an inhibition at 10 µM (SN40R2 cells; [1]) of 6%.

`C=C(CO)CO[C@]1(c2ccc(Cl)cc2)c2c(F)cc(C(O)(CC)c3cn(C)cn3)cc2C(=O)N1Cc1ccc(C#N)cn1` (stereo partly drawn) [Example 466, 6-{[(1R)-1-(4-chlorophenyl)-7-fluoro-5-[1-hydroxy-1-(1-methyl-1H-imidazol-4-yl)propyl]-1-(3-hydroxy-2-methylidenepropoxy)-3-oxo-2,3-dihydro-1H-isoindol-2-yl]methyl}pyridine-3-carbonitrile] showed an inhibition at 10 µM (SN40R2 cells; [1]) of 4%.

`CC(O)(c1cc(F)c2c(c1)C(=O)N(Cc1ncc(Cl)cn1)[C@@]2(O[C@H]1CCOC1)c1ccc(Cl)cc1)C1(F)CCOCC1` (stereo partly drawn) [Example 493, (3R)-3-(4-chlorophenyl)-2-[(5-chloropyrimidin-2-yl)methyl]-4-fluoro-6-[1-(4-fluorooxan-4-yl)-1-hydroxyethyl]-3-[(3S)-oxolan-3-yloxy]-2,3-dihydro-1H-isoindol-1-one] showed an inhibition at 10 µM (SN40R2 cells; [1]) of 11%.

Compound `CC[C@](O)(c1cc(F)c2c(c1)C(=O)N(Cc1ncc(Cl)cn1)[C@@]2(OCCO)c1ccc(Cl)cc1)C1(F)CCOCC1` [Example 502, (3R)-3-(4-chlorophenyl)-2-[(5-chloropyrimidin-2-yl)methyl]-4-fluoro-6-[(1S)-1-(4-fluorooxan-4-yl)-1-hydroxypropyl]-3-(2-hydroxyethoxy)-2,3-dihydro-1H-isoindol-1-one] has an inhibition at 10 µM (SN40R2 cells; [1]) of 11%.

With `CC[C@@](O)(c1cc(F)c2c(c1)C(=O)N(Cc1ccc(C)nc1C(=O)O)[C@@]2(OC)c1ccc(Cl)cc1)C1(F)CCOCC1` [Example 515, 3-{[(1R)-1-(4-chlorophenyl)-7-fluoro-5-[(1R)-1-(4-fluorooxan-4-yl)-1-hydroxypropyl]-1-methoxy-3-oxo-2,3-dihydro-1H-isoindol-2-yl]methyl}-6-methylpyridine-2-carboxylic acid] the inhibition at 10 µM (SN40R2 cells; [1]) was 8%.

`[2H]C([2H])(c1ncc(Cl)cn1)N1C(=O)c2cc(C(C)(O)C3(F)CCOCC3)cc(F)c2[C@]1(O[C@H]1CCOC1)c1ccc(Cl)cc1` (stereo partly drawn) [Example 516, (3R)-3-(4-chlorophenyl)-2-[(5-chloropyrimidin-2-yl)dideuteromethyl]-4-fluoro-6-[1-(4-fluorooxan-4-yl)-1-hydroxyethyl]-3-[(3S)-oxolan-3-yloxy]-2,3-dihydro-1H-isoindol-1-one] showed an inhibition at 10 µM (SN40R2 cells; [1]) of 4%.

`CCC(O)(CN(C)C)c1cc(F)c2c(c1)C(=O)N(Cc1ncc(Cl)cn1)[C@@]2(O[C@H]1CCOC1)c1ccc(Cl)cc1` (stereo partly drawn) [Example 528, (3R)-3-(4-chlorophenyl)-2-[(5-chloropyrimidin-2-yl)methyl]-6-[1-(dimethylamino)-2-hydroxybutan-2-yl]-4-fluoro-3-[(3S)-oxolan-3-yloxy]-2,3-dihydro-1H-isoindol-1-one] was tested, and the inhibition at 10 µM (SN40R2 cells; [1]) was 10%.

Work on `CC[C@@](O)(c1cc(F)c2c(c1)C(=O)N(Cc1ncc(Cl)cn1)[C@@]2(OC)c1ccc(Cl)cc1)C1CCN(C)CC1` [Example 553, (3R)-3-(4-chlorophenyl)-2-[(5-chloropyrimidin-2-yl)methyl]-4-fluoro-6-[(1S)-1-hydroxy-1-(1-methylpiperidin-4-yl)propyl]-3-methoxy-2,3-dihydro-1H-isoindol-1-one] yielded an inhibition at 10 µM (SN40R2 cells; [1]) of 24%.

With `CC[C@@](O)(c1cc(F)c2c(c1)C(=O)N(Cc1ncc(Cl)cn1)[C@@]2(OCCO)c1ccc(Cl)cc1)C1CCN(C)CC1` [Example 559, (3R)-3-(4-chlorophenyl)-2-[(5-chloropyrimidin-2-yl)methyl]-4-fluoro-6-[(1S)-1-hydroxy-1-(1-methylpiperidin-4-yl)propyl]-3-(2-hydroxyethoxy)-2,3-dihydro-1H-isoindol-1-one] the inhibition at 10 µM (SN40R2 cells; [1]) was 1%.

`CC[C@@](O)(c1cc(F)c2c(c1)C(=O)N(Cc1ncc(Cl)cn1)[C@@]2(OC[C@@H](C)O)c1ccc(Cl)cc1)C1CCN(C)CC1` [Example 562, (3R)-3-(4-chlorophenyl)-2-[(5-chloropyrimidin-2-yl)methyl]-4-fluoro-6-[(1S)-1-hydroxy-1-(1-methylpiperidin-4-yl)propyl]-3-[(2R)-2-hydroxypropoxy]-2,3-dihydro-1H-isoindol-1-one] gave an inhibition at 10 µM (SN40R2 cells; [1]) of 1%.

`CC[C@](O)(c1cc(F)c2c(c1)C(=O)N(Cc1ncc(Cl)cn1)[C@@]2(OC)c1ccc(Cl)cc1)C1CCN(C)CC1` [Example 566, (3R)-3-(4-chlorophenyl)-2-[(5-chloropyrimidin-2-yl)methyl]-4-fluoro-6-[(1R)-1-hydroxy-1-(1-methylpiperidin-4-yl)propyl]-3-methoxy-2,3-dihydro-1H-isoindol-1-one] showed an inhibition at 10 µM (SN40R2 cells; [1]) of 46%.

In the case of `CC(O)(c1cc(F)c2c(c1)C(=O)N(Cc1ccc(C#N)cn1)[C@@]2(OC[C@H](O)CF)c1ccc(Cl)cc1)C1(F)CCOCC1` (stereo partly drawn) [Example 579, 6-{[(1R)-1-(4-chlorophenyl)-7-fluoro-1-[(2S)-3-fluoro-2-hydroxypropoxy]-5-[1-(4-fluorooxan-4-yl)-1-hydroxyethyl]-3-oxo-2,3-dihydro-1H-isoindol-2-yl]methyl}pyridine-3-carbonitrile], the inhibition at 10 µM (SN40R2 cells; [1]) is reported as 4%.

`[2H]C([2H])(O)C([2H])([2H])O[C@]1(c2ccc(Cl)cc2)c2c(F)cc(C(O)(CC)C3(F)CCN(C)CC3)cc2C(=O)N1Cc1ncc(Cl)cn1` (stereo partly drawn) [Example 580, (3R)-3-(4-chlorophenyl)-2-[(5-chloropyrimidin-2-yl)methyl]-4-fluoro-6-[1-(4-fluoro-1-methylpiperidin-4-yl)-1-hydroxypropyl]-3-[2-hydroxy(1,1,2,2-tetradeutero)ethoxy]-2,3-dihydro-1H-isoindol-1-one] gave an inhibition at 10 µM (SN40R2 cells; read-out: SN40R2 % inhibition at 10, Protocol B, SN40R2, at 10 μM) of 13%.

From patent US11236047B2 (ASTEX THERAPEUTICS LIMITED, priority 2017, dated 2022)
